This note sets out measurements from PubChem BioAssay AID1996.

In brackets after ≈: the same amount, converted by molar mass.

For orientation: kinetic solubility means solubility judged after dilution from a stock solution rather than from solid.

The conditions of the data set: buffer; pH 7.4; 200.0 µM.
The compound `COc1ccccc1CCC(=O)Oc1ccc(C#N)cc1OC` yielded a kinetic solubility of 9.5 µg/mL (≈ 30.5 µM).

`Cc1noc(C)c1S(=O)(=O)Nc1cccc(C(F)(F)F)c1` gave a kinetic solubility greater than 48 µg/mL.

With `COc1ccc(-c2cc(C(=O)N3CCCCCC3)no2)cc1`, the solubility (kinetic) was determined as 4 µg/mL (≈ 13.3 µM).

The compound `COc1ccccc1C(=O)Nc1ccccc1N1CCCCC1` showed a solubility (kinetic) of 1 µg/mL (≈ 3.22 µM).

Consider `CCOc1ccc(NC(=O)c2cccc(NC(=O)c3ccccc3)c2)cc1`, for which the kinetic solubility is 0.8 µg/mL (≈ 2.22 µM).

Turning to `COc1ccc(-c2onc(C)c2-c2ccc3c(c2)OCCO3)c(O)c1`, the solubility (kinetic) worked out at 2.6 µg/mL (≈ 7.66 µM).

The compound `NC1=NC(c2ccccc2)=NC1(NC(=O)c1ccccc1)C(Cl)Cl` (configuration not stated) came in with a solubility (kinetic) of 44.4 µg/mL (≈ 123 µM).

In the case of `Cc1c(NS(=O)(=O)c2ccc(N)cc2)c(=O)n(-c2ccccc2)n1C`, the kinetic solubility was greater than 53.8 µg/mL.

`Cn1c(=O)c2c(nc3n2CC(COc2ccccc2)O3)n(C)c1=O` (configuration not stated) displayed a kinetic solubility greater than 49.2 µg/mL.

Consider `Fc1ccc(CN2CCN(c3ncccn3)CC2)c(F)c1`, for which the solubility (kinetic) was found to be 32.2 µg/mL (≈ 111 µM).

In turn, `CCc1ccccc1NC(=O)Nc1cnccn1` registered a solubility (kinetic) of 6.1 µg/mL (≈ 25.2 µM).

Consider `CCCCNC(=O)CCc1nc2cccnc2n1Cc1ccccc1`, for which the kinetic solubility was greater than 50.5 µg/mL.

`CC(C)N(Cc1ccccc1)C(=O)COC(=O)c1c(F)cccc1F` yielded a solubility (kinetic) greater than 52.1 µg/mL.

As to `O=C1N/C(=N/S(=O)(=O)Cc2ccccc2)S/C1=C/c1ccc2c(c1)OCO2`, the kinetic solubility came out at 51 µg/mL (≈ 127 µM).

For `O=C(O)CN1c2cccc3cccc(c23)S1(=O)=O`, the kinetic solubility is 38.2 µg/mL (≈ 145 µM).

In the case of `O=C(Cc1ccc(F)cc1)N1CCOCC1`, the solubility (kinetic) was greater than 33.5 µg/mL.

On to `CCCCNC(=O)N1CCN(C(c2ccccc2)c2ccccc2)CC1`, for which the solubility (kinetic) was 5 µg/mL (≈ 14.2 µM).

`O=C1CCCN1CCCNS(=O)(=O)c1ccccc1`: the kinetic solubility was greater than 42.4 µg/mL.

`COC(=O)c1cc(C(=O)OC)n(Cc2ccc(F)cc2)c1C` displayed a solubility (kinetic) of 10.6 µg/mL (≈ 34.7 µM).

Consider `COc1ccc(C(=O)OCC(=O)c2c[nH]c3ccccc23)c(OC)c1`, for which the kinetic solubility was 4.5 µg/mL (≈ 13.3 µM).

`Cc1ccc(C)c(N(CC(=O)N2CCc3ccccc3C2)S(C)(=O)=O)c1` came in with a kinetic solubility of 52.8 µg/mL (≈ 142 µM).

Compound `Cc1cc(C)c2c(CN3CCC(C)CC3)cc(=O)oc2c1` had a solubility (kinetic) of 4.3 µg/mL (≈ 15.1 µM).

`O=C(O)c1cc(C(=O)O)cc(N2C(=O)CSC2=S)c1` registered a solubility (kinetic) greater than 44.6 µg/mL.

The compound `O=C(Cn1cc([N+](=O)[O-])ccc1=O)NC1CCCCC1` had a kinetic solubility greater than 41.9 µg/mL.

`CCN(/C(N)=N/c1nc(C)cc(C)n1)c1ccccc1` showed a solubility (kinetic) greater than 40.4 µg/mL.

In turn, `O=[N+]([O-])c1ccc2c(c1)nc(CO)n2Cc1ccccc1` yielded a solubility (kinetic) of 9.3 µg/mL (≈ 32.8 µM).

`Cc1cccc(-c2ncc(S(=O)(=O)C(C)(C)C)c(N)n2)c1` had a kinetic solubility of 0.2 µg/mL (≈ 0.655 µM).

In turn, `O=C(O)c1cc(-c2ccc(Cl)s2)nc2ccccc12` yielded a kinetic solubility of 41.5 µg/mL (≈ 143 µM).

`COc1cc(C(C)=O)ccc1Oc1cnccn1` showed a solubility (kinetic) greater than 36.6 µg/mL.

The compound `O=C(Nc1cccc(F)c1)c1ccco1` registered a solubility (kinetic) of 26.7 µg/mL (≈ 130 µM).

Consider `O=C(CN1c2cccc3cccc(c23)S1(=O)=O)NCc1ccc(F)cc1`, for which the kinetic solubility was found to be 27.4 µg/mL (≈ 74 µM).

In turn, `Cc1ccc(NC(=O)COC(=O)c2cccnc2)c(C)c1` returned a solubility (kinetic) greater than 42.6 µg/mL.

`N#Cc1ccccc1NC(=O)CN1CCN(Cc2ccccc2)CC1` gave a solubility (kinetic) greater than 50.2 µg/mL.

As to `COc1ccc(NC(=O)CSc2nncn2C)cc1`, the kinetic solubility is greater than 41.7 µg/mL.

`CCOc1ccccc1Nc1nc(N)nc(CN2CCCCC2C)n1` (configuration not stated) gave a solubility (kinetic) greater than 51.4 µg/mL.

The compound `COC(=O)c1[nH]c2ccccc2c1NC(=O)c1c(F)cccc1F` had a kinetic solubility of 1.1 µg/mL (≈ 3.33 µM).

Turning to `Cc1cc(C)c(OCCCn2ccnc2)c(C)c1`, the solubility (kinetic) came out at 27.2 µg/mL (≈ 111 µM).

For the compound `COc1ccc(C(=O)OC2CC3CCC(C2)[N+]3(C)[O-])cc1OC` (configuration not stated), the kinetic solubility is 47.8 µg/mL (≈ 149 µM).

`Cc1ccc2c(COC(=O)C3CSC4(C)CCC(=O)N34)cc(=O)oc2c1C` (configuration not stated): the kinetic solubility is 38.4 µg/mL (≈ 99.1 µM).

`Cc1cccc(C(=O)NCc2ccco2)c1` had a kinetic solubility greater than 32.3 µg/mL.

`O=C(OCCN1C(=O)c2ccccc2C1=O)[C@@H]1CC(O)CN1S(=O)(=O)c1ccccc1[N+](=O)[O-]` (some centres not stated) showed a solubility (kinetic) greater than 73.4 µg/mL.

`O=C1CN(S(=O)(=O)c2cccc(C(=O)O)c2)c2ccccc2N1` registered a kinetic solubility greater than 49.8 µg/mL.

On to `CC[C@H](C)[C@H](NC(N)=O)C(=O)NCCc1ccc(Cl)cc1`, for which the kinetic solubility is greater than 46.8 µg/mL.

As to `Cc1cc(C(=O)OC(C)C(=O)NC2CCCCC2)c(C)o1` (configuration not stated), the kinetic solubility worked out at 15.7 µg/mL (≈ 53.5 µM).

Take `O=C(/C=C/c1cccc([N+](=O)[O-])c1)OCC(=O)c1ccccc1`: the kinetic solubility was less than 0.7 µg/mL.

In turn, `Cc1cccc(C(=O)OCC(=O)NCCN2C(=O)CSC2=O)c1[N+](=O)[O-]` returned a solubility (kinetic) greater than 57.2 µg/mL.

In turn, `COc1ccccc1OCCNC(=O)c1ccco1` gave a kinetic solubility of 33.4 µg/mL (≈ 128 µM).

Take `O=C(COC(=O)C1(c2ccccc2F)CCCC1)N1CCNC1=O`: the solubility (kinetic) is greater than 50.2 µg/mL.

`COc1ccccc1C(=O)C1CCCN(C(=O)Nc2ccccc2F)C1` (configuration not stated) registered a kinetic solubility greater than 53.5 µg/mL.

The compound `CCOC(=O)C1=C(C)NC(C)=C(C(=O)OCC)C1C(=O)OCC(=O)NCCc1ccccc1` came in with a solubility (kinetic) greater than 68.8 µg/mL.

Consider `O=C(O)c1ccc(Nc2nc(-c3cccnc3)cs2)cc1O`, for which the kinetic solubility is greater than 47 µg/mL.

`Cn1c(C(=O)N2CCC(C(N)=O)CC2)cc2cc(Cl)ccc21` yielded a kinetic solubility of 1.2 µg/mL (≈ 3.75 µM).
